Structures can show the parent of a compound that is named as a salt. Where two headings read alike, the source gives them in different places.
Experiments:
[1] = Comparison of plasma concentrations for urethra-closing effect and anti-obesity effect (analysis of Examples 1-9 and literature)
[2] = Plasma concentrations in rats 30 minutes after oral administration (effective plasma concentration at LPP10); details: rat
Experimental: Ten female rats of SD strain were anesthetized with isoflurane. In order to secure the same conditions as those for drug-administered animals, their spinal cord was transected at the T8-T9 (the eighth thoracic cord—the ninth thoracic cord) level. Then, a cannula for blood collection was inserted into the femoral artery. […] These drugs were each dissolved in 0.5% MC. Thirty minutes after oral administration, up to 250 μL of blood was collected from the femoral artery or the tail vein and treated with heparin. The collected blood was immediately cooled on ice and centrifuged under conditions involving 3,000 rpm and 4° C. for 10 minutes to obtain plasma. The plasma samples were stored under conditions of −80° C. until drug quantification.
After thawing of the plasma samples, the internal standard compound was added thereto, and the mixture was then centrifuged under conditions of 5,250 rpm. The drug contained in 60 μL of the supernatant was quantified by LC-MS/MS.

[3] = cited from earlier work
[4] = tested on: urethra-closing reflex response; test: Urethra-closing reflex response induced by intravesical pressure rise in rats; format: in vivo, rat; details: 20 mg/kg i.d., mean ± SEM
Experimental: Thirty-two female rats of SD strain were used. The rats were anesthetized with urethane. Isoflurane inhalation was added during the surgery, if necessary. Their spinal cord was transected at the T8-T9 (the eighth thoracic cord—the ninth thoracic cord) level to eliminate the reflex voiding and to inhibit the transition from the urine storage phase to the voiding phase in the voiding cycle. After opening of the abdomen, the bladder neck was ligated with suture, and a catheter (PE-100) was inserted into the bladder. The bladder catheter was connected to a pressure transducer and a saline-containing reservoir via three-way stopcocks. A microtip transducer catheter was inserted from the urethral orifice toward the bladder so that its transducer was inserted into the urethra. Local change in pressure within the urethra (intraurethral pressure) was recorded via an electric signal amplifier and an analog-to-digital converter. […] Then, the reservoir was brought back to the original position to adjust the intravesical pressure to its baseline. Such change in intraurethral pressure induced by intravesical pressure rise was repeatedly measured, and the mean value from the last 2 trials was used as a Pre value. The vehicle used was 0.5% MC. […] Thirty minutes after administration, the change in intraurethral pressure induced by intravesical pressure rise was measured again and used as a Post value. The average value before intravesical pressure rise was subtracted from the average value during intravesical pressure rise, and the subtracted value was used as urethra-closing reflex response. The ratio of the Post value to the Pre value was calculated.

urethra-closing response = test: MT (threshold inducing urethra-closing response) under transcranial magnetic stimulation in healthy female volunteers; format: in vivo, human; details: for MT of the urethra-closing response in response to TMS, Mean / Rate of change from baseline of MT of the urethra-closing response in response to TMS, Mean: 40 mg capsule single oral dose
Experimental: The test subjects were healthy female volunteers having a body weight of at least 45 kg (average: 50.91 kg, standard deviation: 3.346) and a BMI value of 18.5 kg/m^2 to 25.0 kg/m^2 (average: 19.57 kg/m^2, standard deviation: 0.929).
A washout period of at least 7 days was provided between the treatments.
A capsule containing 40 mg of duloxetine was orally administered as duloxetine together with water. A placebo capsule containing saccharose and spherical starch granules was orally administered as a placebo for duloxetine together with water.
Specifically, during the TMS, the output of a magnetic stimulator (Magstim Rapid Square, manufactured by Magstim Co., Ltd.) was increased by 5% each time using 110 mm double cone coil, and the minimum output at which urethra-closing response occurred abruptly was determined and used as MT (%). The urethra-closing response was detected by measuring contractile responses within the urethra. The contractile response within the urethra was measured using Duet Logic G2 (manufactured by Mediwatch Ltd.) and UniTip (manufactured by Unisensor AG). MT was measured again after administration of each drug, and the rate of change (%) from the baseline was calculated. The rate of change was determined by dividing MT after administration of each drug by MT before administration.

urethral resistance [5] = test: Urethral resistance (LPP) during intravesical pressure rise by electrical stimulation of rat abdominal muscle; format: in vivo; details: mean ± SEM; for LPP Post: 30 minutes after administration; for LPP Increase: Post minus Pre; for LPP Pre: before administration
Experimental: Fifty six female rats of Sprague-Dawley strain (hereinafter, referred to as “SD strain”) were used. The rats were anesthetized with urethane, and their spinal cord was transected at the T8-T9 (the eighth thoracic cord—the ninth thoracic cord) level for the elimination of reflex voiding. Isoflurane inhalation was added, if necessary. After opening of the abdomen, a catheter (PE-100) was inserted into the bladder. In order to secure reduced urethral resistance, unilateral nerve to iliococcygeus and pubococcygeus muscles was transected. For intraduodenal administration, another catheter (PE-50) was inserted into the duodenum in advance. The abdominal muscle and skin were each closed with sutures. Two (right and left) sites of abdominal skin near the diaphragm were cut to expose abdominal muscle. The bladder was emptied through the catheter, followed by the injection of 0.2 to 0.3 mL of 0.1% Evans blue solution. Change in intravesical pressure was recorded using the bladder catheter via a pressure transducer, an electric signal amplifier, and an analog-to-digital converter. While change in intravesical pressure was recorded, the presence or absence of fluid leakage from the urethral orifice was observed under the electrical stimulation of the exposed abdominal muscle using an electrical stimulator and an isolator. […] The peak of the intravesical pressure during the stimulation of the abdominal muscle was measured, and the lowest pressure at which the fluid leakage was observed among the trials was defined as leak point pressure (hereinafter, referred to as “LPP”) for the electrical abdominal muscle stimulation method and used as an index for urethral resistance. Each drug was evaluated for its effect by comparing LPP before drug administration with that after drug administration. […] The drugs were suspended in 0.5% methylcellulose solution (MC). […] LPP was measured again 30 minutes after administration. Regarding change in LPP before and after drug administration, the differences between the mean values of the drug-treated and vehicle groups were analyzed by the one-tailed Williams' test.

urethral resistance [6] = test: Rat urethral resistance (LPP) measured by high speed infusion of saline into the bladder; format: in vivo; details: mean ± SEM; for LPP Post: 30 minutes after administration; for LPP Increase: Post minus Pre; for LPP Pre: before administration
From the text: The rats were anesthetized with isoflurane. Their spinal cord was transected at the T8-T9 (the eighth thoracic cord—the ninth thoracic cord) level. After opening of the bladder dome, two polyethylene tubes (PE-100) were inserted into the bladder. The incised portion of the bladder was closed with sutures, and the other incisions were also closed. The rats were placed in Bollman cages. The catheter for intravesical pressure measurement was connected to a pressure transducer, while the catheter for saline filling was connected to a syringe filled with Evans Blue-dyed saline. Change in intravesical pressure was recorded using the pressure transducer via an electric signal amplifier and an analog-to-digital converter. After recovery of the animals from anesthesia, the intravesical pressure measurement was started, and saline was infused at a speed of 0.1 mL/sec into the bladder using an infusion pump. The infusion was stopped when the leakage of the saline from the urethral orifice was observed. Immediately thereafter, the bladder was emptied by releasing the pressure. In this operation, the peak of recorded intravesical pressure during the saline infusion was used as LPP in this Example. This measurement was repeated, and the average LPP from the last three measurements was used as the LPP value of the trial. The mean from 2 such trials was used as a Pre value. 0.5% MC was used as the vehicle. […] The difference in LPP from the Pre value (increased amount of LPP) was calculated. Regarding change in LPP before and after drug administration, the differences between the mean values of the drug-treated and vehicle-treated groups were analyzed by the one-tailed Williams' test.

[7] = tested on: urethral resistance increasing effect of Compound A′; test: Influence of antagonists (SB 242084, methiothepin) on urethral resistance increasing effect of Compound A′ in rats; format: in vivo, rat; details: mean ± SEM; for LPP Increase: Post minus Pre; for LPP Pre: before administration
Experimental: Ninety female rats of SD strain were used. […] Isoflurane inhalation was added during the surgery, if necessary. In the experiment with intrathecal administration, the dura mater was exposed by laminectomy and then partially opened by incision, through which a catheter (PE-10) filled with saline was then implanted at the level of the L6-S1 site, followed by the closing of the incision. After opening of the abdomen, a catheter (PE-90) was inserted into the bladder. In order to secure reduced urethral resistance, unilateral nerve to iliococcygeus and pubococcygeus muscles was transected. For intraduodenal administration, another catheter (PE-50) was inserted into the duodenum in advance. The abdominal muscle and skin were each closed with sutures. Two (right and left) sites of abdominal skin near the diaphragm were cut to expose abdominal muscle. The bladder was emptied through the catheter, followed by the injection of 0.2 to 0.3 mL of Evans blue solution. Change in intravesical pressure was recorded using the bladder catheter via a pressure transducer, an electric signal amplifier, and an analog-to-digital converter. While change in intravesical pressure was recorded, the presence or absence of fluid leakage from the urethral orifice was observed under the electrical stimulation of the exposed abdominal muscle using an electrical stimulator and an isolator. […] The peak of the intravesical pressure during the stimulation of the abdominal muscle was measured, and the lowest pressure at which the fluid leakage was observed among the trials was defined as LPP for the electrical abdominal muscle stimulation method. In order to examine whether the urethral resistance increasing effect of Compound A′ is based on its agonistic potency on 5-HT2C receptors, SB 242084, methiothepin, or a vehicle was intravenously administered, and Compound A′ or a vehicle was intraduodenally administered 5 minutes later. SB 242084 was dissolved in a mixed solution of N,N-dimethylacetamide and polyethylene glycol 400 (1:1) and administered at 0.03 mg/0.5 mL/kg, 0.1 mg/0.5 mL/kg and 0.3 mg/0.5 mL/kg. Methiothepin was dissolved in saline and administered at 0.03 mg/0.5 mL/kg. 0.1 mg/0.5 mL/kg and 0.3 mg/0.5 mL/kg. Compound A′ was suspended in 0.5% MC and administered at 3 mg/mL/kg. LPP was measured again 30 minutes after Compound A′ administration. In order to examine where Compound A′ works in the body to increase urethral resistance, the blocking of the effect of Compound A′ was confirmed by blocking the functions of Compound A′ by giving methiothepin at a particular site in the body. Particularly, in the experiment with intrathecal administration, methiothepin or a vehicle was intrathecally administered, and Compound A′ or a vehicle was intraduodenally administered 5 minutes later. Methiothepin was dissolved in saline and 20 μL of the obtained solution was administered. Compound A′ was suspended in 0.5% MC and administered at 3 mg/mL/kg. LPP was measured again 30 minutes after Compound A′ administration.
Regarding change in LPP before and after drug administration, the differences between the mean values of the Compound A′-treated and vehicle-treated groups were analyzed by the Student's t test or the Welch's test. In order to analyze the influence of the antagonists on the effect of Compound A′, the differences between the mean values of the SB 242084- or methiothepin- and Compound A′-administered group and the vehicle- and Compound A′-administered group were analyzed by the one-tailed Williams' test.

[8] = methiothepin 10 μg intrathecal + Compound A′ 3 mg/kg i.d.
[9] = methiothepin 30 μg intrathecal + Compound A′ 3 mg/kg i.d.
[10] = methiothepin 0.03 mg/kg i.v. + Compound A′ 3 mg/kg i.d.
[11] = methiothepin 100 μg intrathecal + Compound A′ 0 mg/kg i.d.
[12] = methiothepin 100 μg intrathecal + Compound A′ 3 mg/kg i.d.
[13] = methiothepin 0.1 mg/kg i.v. + Compound A′ 3 mg/kg i.d.
[14] = methiothepin 0.3 mg/kg i.v. + Compound A′ 0 mg/kg i.d.
[15] = methiothepin 0.3 mg/kg i.v. + Compound A′ 3 mg/kg i.d.

SMILES: C[C@H]1CNCCc2ccc(Cl)cc21 [Compound B, (R)-8-chloro-1-methyl-2,3,4,5-tetrahydro-1H-3-benzazepine]
- plasma concentration estimated to show sufficient effects on urethra-closing function in humans ([1]; second analysis: 14-fold lower than 43 ng/mL): around 3 ng/mL
- concentration at 30 min ([2]; female, SD, plasma, po, 4 mg/kg): 32.9 ± 18 ng/mL
- plasma concentration at LPP10 ([2]; measured concentration multiplied by ratio between dosage used and LPP10): 9.9 ng/mL
- average plasma concentration in a day (steady state) giving a body weight lowering effect greater than placebo by 3.8% in humans ([3]; 10 mg b.i.d. (launched dose), free form): 43 ng/mL
- average plasma concentration in a day (steady state) giving a body weight lowering effect greater than placebo by 2.6% in humans ([3]; 10 mg q.d., free form): 24 ng/mL
- blood concentration ([3]; after a single administration of a sustained release formulation containing 20 mg): 39 ng/mL
- plasma concentration Cmin ([3]; launched dose 10 mg bid): 26 ng/mL
- blood concentration ([3]; sustained release formulation containing 20 mg once daily): 74 ng/mL

SMILES: CNCC[C@H](Oc1cccc2ccccc12)c1cccs1 [Duloxetine, duloxetine hydrochloride]
- Urethra-closing reflex response Post ([4]; 30 minutes after administration, intravesical pressure rise by 50 cm H2O): 8.66 ± 1.34 cmH2O
- Urethra-closing reflex response Pre ([4]; before administration, intravesical pressure rise by 50 cm H2O): 4.88 ± 0.86 cmH2O
- Urethra-closing reflex response Ratio (Post/Pr) ([4]; ratio of Post value to Pre value): 2.00 ± 0.28
- maximal urethral resistance increasing effect (LPP elevation) in rats ([1]; summary of Examples 2 and 5): around 10 cmH2O
- MT of the urethra-closing response in response to TMS, Mean (urethra-closing response; 0.5 hr): 67.4%
- Rate of change from baseline of MT of the urethra-closing response in response to TMS, Mean (urethra-closing response; 0.5 hr): −0.4%
- MT of the urethra-closing response in response to TMS, Mean (urethra-closing response; 2 hr): 62.0%
- Rate of change from baseline of MT of the urethra-closing response in response to TMS, Mean (urethra-closing response; 2 hr): −5.9%
- MT of the urethra-closing response in response to TMS, Mean (urethra-closing response; 6 hr): 56.4%
- Rate of change from baseline of MT of the urethra-closing response in response to TMS, Mean (urethra-closing response; 6 hr): −11.8%
- MT of the urethra-closing response in response to TMS, Mean (urethra-closing response; Predose): 67.8%
- maximum change from baseline in MT in response to TMS (urethra-closing response; 40 mg group, at 6 hours post dose): −11.8%
- LPP Post (urethral resistance [5]; 5 mg/kg i.d.): 38.3 ± 2.7 cmH2O
- LPP Increase (urethral resistance [5]; 5 mg/kg i.d.): 1.7 ± 1.4 cmH2O
- LPP Pre (urethral resistance [5]; 5 mg/kg i.d.): 36.6 ± 3.0 cmH2O
- LPP Post (urethral resistance [5]; 10 mg/kg i.d.): 39.1 ± 2.9 cmH2O
- LPP Increase (urethral resistance [5]; 10 mg/kg i.d.): 3.7 ± 2.3 cmH2O
- LPP Pre (urethral resistance [5]; 10 mg/kg i.d.): 35.3 ± 3.0 cmH2O
- LPP Post (urethral resistance [5]; 20 mg/kg i.d.): 46.6 ± 5.7 cmH2O
- LPP Increase (urethral resistance [5]; 20 mg/kg i.d.): 9.7 ± 3.5 cmH2O
- LPP Pre (urethral resistance [5]; 20 mg/kg i.d.): 36.9 ± 2.8 cmH2O
- LPP Post (urethral resistance [6]; 5 mg/kg p.o.): 64.1 ± 5.5 cmH2O
- LPP Increase (urethral resistance [6]; 5 mg/kg p.o.): 4.2 ± 1.7 cmH2O
- LPP Pre (urethral resistance [6]; 5 mg/kg p.o.): 59.9 ± 5.1 cmH2O
- LPP Post (urethral resistance [6]; 10 mg/kg p.o.): 67.6 ± 3.5 cmH2O
- LPP Increase (urethral resistance [6]; 10 mg/kg p.o.): 7.7 ± 2.2 cmH2O
- LPP Pre (urethral resistance [6]; 10 mg/kg p.o.): 59.8 ± 3.8 cmH2O
- LPP Post (urethral resistance [6]; 20 mg/kg p.o.): 69.8 ± 4.0 cmH2O
- LPP Increase (urethral resistance [6]; 20 mg/kg p.o.): 11.9 ± 3.7 cmH2O
- LPP Pre (urethral resistance [6]; 20 mg/kg p.o.): 57.9 ± 2.7 cmH2O
- LPP Post (urethral resistance [6]; 40 mg/kg p.o.): 73.3 ± 5.3 cmH2O
- LPP Increase (urethral resistance [6]; 40 mg/kg p.o.): 13.1 ± 2.9 cmH2O
- LPP Pre (urethral resistance [6]; 40 mg/kg p.o.): 60.2 ± 3.1 cmH2O

SMILES: CSc1ccc2c(c1)C(N1CCN(C)CC1)Cc1ccccc1S2.O=C(O)/C=C\C(=O)O (stereo not shown) [methiothepin, methiothepin maleate]
- LPP Post ([7]; methiothepin 10 μg intrathecal + Compound A′ 3 mg/kg i.d., 30 minutes after Compound A′): 69.4 ± 10.4 cmH2O
- LPP Increase [7, 8]: 35.3 ± 9.8 cmH2O
- LPP Pre [7, 8]: 34.1 ± 3.2 cmH2O
- LPP Post ([7]; methiothepin 30 μg intrathecal + Compound A′ 3 mg/kg i.d., 30 minutes after Compound A′): 52.1 ± 8.6 cmH2O
- LPP Increase [7, 9]: 11.1 ± 6.5 cmH2O
- LPP Pre [7, 9]: 41.0 ± 3.6 cmH2O
- LPP Increase [7, 10]: 17.9 ± 4.3 cmH2O
- LPP Pre [7, 10]: 44.4 ± 2.5 cmH2O
- LPP Post ([7]; methiothepin 100 μg intrathecal + Compound A′ 0 mg/kg i.d., 30 minutes after i.d. administration): 40.5 ± 3.2 cmH2O
- LPP Increase [7, 11]: −5.3 ± 3.0 cmH2O
- LPP Pre [7, 11]: 45.8 ± 4.8 cmH2O
- LPP Post ([7]; methiothepin 100 μg intrathecal + Compound A′ 3 mg/kg i.d., 30 minutes after Compound A′): 45.9 ± 5.5 cmH2O
- LPP Increase [7, 12]: 5.6 ± 3.5 cmH2O
- LPP Pre [7, 12]: 40.4 ± 3.0 cmH2O
- LPP Post ([7]; methiothepin 0.1 mg/kg i.v. + Compound A′ 3 mg/kg i.d., 30 minutes after Compound A′): 59.9 ± 3.7 cmH2O
- LPP Increase [7, 13]: 9.5 ± 3.3 cmH2O
- LPP Pre [7, 13]: 50.4 ± 4.4 cmH2O
- LPP Post ([7]; methiothepin 0.3 mg/kg i.v. + Compound A′ 0 mg/kg i.d., 30 minutes after i.d. administration): 44.0 ± 7.1 cmH2O
- LPP Increase [7, 14]: −2.0 ± 2.5 cmH2O
- LPP Pre [7, 14]: 46.0 ± 9.6 cmH2O
- LPP Post ([7]; methiothepin 0.3 mg/kg i.v. + Compound A′ 3 mg/kg i.d., 30 minutes after Compound A′): 40.6 ± 4.9 cmH2O
- LPP Increase [7, 15]: −2.2 ± 2.9 cmH2O
- LPP Pre [7, 15]: 42.9 ± 3.8 cmH2O
